Read-outs that look alike come from different tables or passages of the source.
Legend:
[1] = human, in vivo
Description: The patient was genotyped for CYP2C19.
Time course of (A) voriconazole i. v. dosage administration, (B) comedication with esomeprazole or ranitidine and (C) associated antiretroviral therapy. Voriconazole plasma trough concentrations. qd: once a day; b.i.d.: Twice a day.
Ranitidine was replaced by esomeprazole 40 mg IV bid.

[2] = design: method as in PMID 22751544; details: target trough range; cited from earlier work
CYP2C19 = biological target: T1, CYP2C19 (Homo sapiens, UniProt P33261); test: CYP2C19 phenotyping with 2 mg omeprazole (omeprazole metabolic ratio); type: in vivo; details: while on CYP2C19 inhibitor esomeprazole, cut-off = 5, showed decreased CYP2C19 activity
T1 construct: endogenous in cells; host or cells: patient in vivo (endogenous enzyme)
T1 sequence (P33261 whole entry): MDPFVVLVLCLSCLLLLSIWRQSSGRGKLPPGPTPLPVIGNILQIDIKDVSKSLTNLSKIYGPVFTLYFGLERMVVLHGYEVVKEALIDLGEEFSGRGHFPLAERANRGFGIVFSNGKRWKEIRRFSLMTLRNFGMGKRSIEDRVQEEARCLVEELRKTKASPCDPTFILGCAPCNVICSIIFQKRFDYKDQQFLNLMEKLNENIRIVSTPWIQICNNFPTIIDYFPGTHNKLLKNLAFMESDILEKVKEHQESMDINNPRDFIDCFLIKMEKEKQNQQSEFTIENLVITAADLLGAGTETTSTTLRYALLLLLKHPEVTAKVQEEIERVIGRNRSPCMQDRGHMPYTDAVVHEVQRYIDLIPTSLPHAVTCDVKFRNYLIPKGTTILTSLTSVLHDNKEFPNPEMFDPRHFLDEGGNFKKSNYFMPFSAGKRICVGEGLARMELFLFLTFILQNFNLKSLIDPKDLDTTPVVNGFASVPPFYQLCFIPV

SMILES | Voriconazole first trough concentration (C0) ([1]; female) | Voriconazole C0 versus therapeutic range [1] | Voriconazole C0 versus therapeutic range ([1]; 2.5 mg/kg) | Voriconazole C0 therapeutic range [2] | omeprazole metabolic ratio (CYP2C19)
C[C@@H](c1ncncc1F)[C@](O)(Cn1cncn1)c1ccc(F)cc1F [Voriconazole] | < 1.0 µg/mL | below the therapeutic range | within the therapeutic range | 1.0 to 5.0 µg/mL | 
COc1ccc2[nH]c([S+]([O-])Cc3ncc(C)c(OC)c3C)nc2c1 (centres unmarked) [omeprazole] |  |  |  |  | 10.5
